These are literature values, as cited in publication PMC8075256, “Transport of Alzheimer’s associated amyloid-β catalyzed by P-glycoprotein” (PLOS ONE, 2021).

This series deals with P-gp and BCRP. The following applies: ref 65 Kannan et al. The source says: To further test if P-gp can transport Aβ42, we performed fluorescence accumulation assays in a human cellular system. […] Previous work by our group has shown that the chemotherapy-sensitive, non-P-gp-overexpressing DU145 cells do express detecta ...

Consider `COc1cc2c(cc1OC)CN(CCc1ccc(NC(=O)c3cc(OC)c(OC)cc3NC(=O)c3cnc4ccccc4c3)cc1)CC2` [Tariquidar], for which the “concentrations at which TQR acts as an inhibitor of both P-gp and BCRP” value is given as “greater than 100 nM”.
